Columns and labels:
MMP-2 = assay: Gelatin zymography of medium from incubated human term amniochorionic membranes, MMP-2; format: cell-based
Source text: Tissues: Full thickness amniochorionic membranes were collected from seven patients without complications of pregnancy undergoing elective C-section at term. The fragment collected was selected from a region at least 10 cm away from the placenta. Immediately after collection, membranes were placed in minimum essential medium (MEM) (Gibco, Grand Island, N.Y.) on ice. Tissue samples were then cut under sterile conditions with a scalpel blade into smaller pieces of similar size. Over the next 30 min., the pieces of membranes were rinsed thoroughly with several changes of MEM and then sterile phosphate buffered saline (PBS) pH=7.8. Preweighed amounts of tissue (approximately 500 mg) consisting of several pieces selected at random were placed in a CO2 incubator with a humidified chamber at 37° C. for 24 hours. Incubations were carried out in a total volume of 2 ml buffer. Both wet weight and dry weight of tissue pieces were determined after incubation and after drying overnight at 60° C., respectively. After incubation the culture-conditioned medium was collected, briefly spun at 1000 g to remove cellular debris and loaded directly on gelatin gels. The concentration of protein in the aliquots of medium was measured with a BCA kit (Pierce, Rockford, Ill.). […]
SDS-Substrate gel electrophoresis (zymography): For detection of MMPs, equal volumes (15 μl) of conditioned medium (containing the activated MMPs) were mixed in a 1:3 ratio with substrate gel buffer (10% SDS, 4% sucrose, 0.25 M Tris-HCl, pH=6.8 and 0.1% bromphenol blue) and loaded directly onto gels without boiling (Raj agopalan et al., 1996 with modifications). […] In order to quantify the gelatinolytic activity of MMPs, the wet gel was scanned on a GS-670 Image Densitometer (Bio-Rad), and analyzed using Multianalyst v1.1 volume quantification system software (Bio-Rad). […]

MMP-9 = assay: Gelatin zymography of medium from incubated human term amniochorionic membranes, MMP-9; format: cell-based; conditions: for Effect on the increase in MMP-9 induced by X/XO: X 2 mM + XO 20 mU/ml, SOD 500 U/ml
Source text: Tissues: Full thickness amniochorionic membranes were collected from seven patients without complications of pregnancy undergoing elective C-section at term. The fragment collected was selected from a region at least 10 cm away from the placenta. Immediately after collection, membranes were placed in minimum essential medium (MEM) (Gibco, Grand Island, N.Y.) on ice. Tissue samples were then cut under sterile conditions with a scalpel blade into smaller pieces of similar size. Over the next 30 min., the pieces of membranes were rinsed thoroughly with several changes of MEM and then sterile phosphate buffered saline (PBS) pH=7.8. Preweighed amounts of tissue (approximately 500 mg) consisting of several pieces selected at random were placed in a CO2 incubator with a humidified chamber at 37° C. for 24 hours. Incubations were carried out in a total volume of 2 ml buffer. Both wet weight and dry weight of tissue pieces were determined after incubation and after drying overnight at 60° C., respectively. After incubation the culture-conditioned medium was collected, briefly spun at 1000 g to remove cellular debris and loaded directly on gelatin gels. The concentration of protein in the aliquots of medium was measured with a BCA kit (Pierce, Rockford, Ill.).
Drugs and incubations: Incubations were performed in the presence of xanthine (X: 2 mM), xanthine oxidase (XO: 20 mU/ml), the combination xanthine+xanthine oxidase (X/XO), superoxide dismutase (SOD: 500 U/ml), X/XO/SOD, nitro-L-arginine (a nonspecific nitric oxide synthase inhibitor, LNA: 1 mM), X/XO/LNA, S-nitroso-N-acetyl penicillamine (a nitric oxide donor, SNAP 10 mM), X/XO/SNAP, N-acetyl cysteine (NAC: 0.1, 1, 10 mM), lipopolysaccharide (LPS 100 ng/ml). All chemicals were purchased from Sigma (St. Louis, Mo.) unless otherwise specified.
SDS-Substrate gel electrophoresis (zymography): For detection of MMPs, equal volumes (15 μl) of conditioned medium (containing the activated MMPs) were mixed in a 1:3 ratio with substrate gel buffer (10% SDS, 4% sucrose, 0.25 M Tris-HCl, pH=6.8 and 0.1% bromphenol blue) and loaded directly onto gels without boiling (Raj agopalan et al., 1996 with modifications). Briefly, type I gelatin was added to a standard Laemmli 10% acrylamide polymerization mixture at a final concentration of 1 mg/ml. Following electrophoresis, the proteins in the gel were renatured by exchanging SDS with Triton X-100 and the gels were incubated overnight at 37° C. in 50 mM TRIS-HCl, pH=7.4 containing 10 mM CaCl2 and 0.05% Brij 35. At the end of the incubation, the gels were stained with 0.5% Coomassie Blue R-250 (Bio-Rad, Hercules, Calif.) in 40% methanol/10% acetic acid, then destained in 40% methanol/10% acetic acid for 1 h. Proteins having gelatinolytic activity appeared as discrete translucent areas of lytic activity on an otherwise blue gel. When the gels are incubated in parallel with 0.01 M EDTA, disappearance of lytic bands confirms the metal dependence of MMP activity. Migration of proteins was compared with that of prestained broad molecular weight markers (Bio-Rad). Further, 10 ng/lane of zymography standards (recombinant MMP-2/MMP-9, Calbiochem, La Jolla, Calif.) were run along with the samples. In order to quantify the gelatinolytic activity of MMPs, the wet gel was scanned on a GS-670 Image Densitometer (Bio-Rad), and analyzed using Multianalyst v1.1 volume quantification system software (Bio-Rad). […]

[1] = tested on: superoxide anion in fetal membranes; assay: Nitroblue tetrazolium (formazan) assay of superoxide generation in fetal membranes; format: cell-based, human
Description: Intracellular superoxide anion generation: Pieces of fetal membranes were immersed in Krebs bicarbonate buffer (118 mM NaCl, 4.7 mM KCl, 1.18 MM MgSO4, 1.18 mM KH2PO4, 11.1 mM D-glucose, 0.016 mM EDTA, 2.2 mM CaCl2, 15.8 mM NaHCO3, pH=7.35−7.4) containing 1 mg/ml nitroblue tetrazolium (NBT), for 180 min. in the CO2 incubator with humidified chamber at 37° C. The soluble yellow form of NBT is reducedby O2.^− generated within the tissue to form an insoluble precipitate of blue-purple formazan. After incubation, the fetal membranes were washed in saline, photographed, placed in 4% formaldehyde and kept overnight in a refrigerator. Specimens were then embedded in OCT Tissue Tek embedding medium (Fisher Scientific, Pittsburgh, Pa.) and frozen in liquid nitrogen. The frozen specimens were cut by cryostat into 20 μm sections, mounted onto electrostatically treated-glass slides (Fisherbrand Superfrost Plus, Fisher Scientific) and counterstained with Neutral Red. They were immediately investigated by light microscopy using a Nikon Eclipse E1000M microscope connected to an MTI DC330 3CCD Color Camera (Dage MTI Inc., Michigan City, Mich.).

C57B16 inbred mice [2] = assay: Timing of birth (latency) in LPS-injected pregnant mice; format: in vivo
Description: Animals and treatments: C57B16 inbred mice were housed together with CD57/BL6 males under regular light and dark cycles, with stable ambient temperature conditions. The next morning the females were examined for the presence of a vaginal plug. The day of detection of the vaginal plug was designated as day 0. On day 16 of pregnancy the pregnant mice were injected i.p. with either 10 μg lipopolysaccharide (LPS: from E Coli 0111.:B4 from Calbiochem) or saline (controls). […] NAC was diluted in phosphate buffered saline (PBS). After 12 hours the animals were inspected hourly for signs of parturition (posture, bleeding). The time between LPS injection and delivery of the first pup was defined as latency. Fetal viability at birth was recorded after tactile stimulation of the pup. To separate between the effect of prematurity on the fetus and the in utero consequence of endotoxin administration on the fetus, animals were sacrificed at 3, 6 and 16 hours after endotoxin injection in a separate set of experiments.

C57B16 inbred mice [3] = assay: Fetal outcome (viability) in LPS-injected pregnant mice; format: in vivo; conditions: for Fetuses dead in utero: 16 h after LPS
Description: Animals and treatments: C57B16 inbred mice were housed together with CD57/BL6 males under regular light and dark cycles, with stable ambient temperature conditions. The next morning the females were examined for the presence of a vaginal plug. The day of detection of the vaginal plug was designated as day 0. On day 16 of pregnancy the pregnant mice were injected i.p. with either 10 μg lipopolysaccharide (LPS: from E Coli 0111.:B4 from Calbiochem) or saline (controls). N-Acetylcysteine 1 g/kg (NAC: which is a membrane permeable GSH precursor, Sigma, St. Louis Mo. and direct antioxidant) was given p.o. by gavage 30 min before and 2 h after the LPS injection. NAC was diluted in phosphate buffered saline (PBS). After 12 hours the animals were inspected hourly for signs of parturition (posture, bleeding). The time between LPS injection and delivery of the first pup was defined as latency. Fetal viability at birth was recorded after tactile stimulation of the pup. To separate between the effect of prematurity on the fetus and the in utero consequence of endotoxin administration on the fetus, animals were sacrificed at 3, 6 and 16 hours after endotoxin injection in a separate set of experiments.

extracellular O2− [4] = assay: Placental extracellular superoxide production (SOD-inhibitable NBT reduction); format: in vivo, mice
Description: Placental extracellular superoxide production: Placental extracellular superoxide production was determined by the SOD-inhibitable reduction of nitroblue tetrazolium. Briefly, after sacrifice duplicate placentas where incubated each in 1 ml 1 mg/ml nitroblue tetrazolium (NBT) diluted in PBS, for 1 h. in a CO2 incubator with humidified chamber at 37° C. The soluble yellow form of NBT is reduced by O2.^− generated within the tissue to form an insoluble precipitate of blue-purple formazan that discolorates the tissue. Extracellular O2.^− produces a discoloration of the incubation medium. The incubation was performed in the presence and absence of SOD. The difference in absorbance at 655 nm normalized by the dry weight of placenta between the average of the duplicates in the presence and absence of SOD represents the SOD-inhibitable O2.^− production and was expressed in normalized arbitrary units.

glutathione = assay: Total glutathione in maternal and fetal livers; format: in vivo, mice; conditions: 16 h
Description: Measurement of total glutathione: Glutathione content was measured in maternal and fetal livers of animals treated with and without NAC and sacrificed at 3, 6 and 16 hours after LPS injection. Fetal livers were pooled from all fetuses of each pregnant animal, snap frozen in liquid nitrogen and stored at −80° C. until assayed. Briefly, the frozen tissue was rapidly homogenized in 7.5% trichloroacetic acid in a ratio of 1:20 (w/v). The homogenate was centrifuged at 3000 g for 10 min at 4° C. Total glutathione content was assayed in the supernatant by a colorimetric reaction that involves the formation of a chromophoric thione (Bioxytech GSH-420, Oxis Health Products, Portland, Oreg.) and was expressed in μg/ml by using oxidized glutathione standards and further normalized by the total protein content of the pellet. The protein pellet was solubilized in 0.1 N NaOH and its protein content was estimated using a BCA protein assay kit (Pierce, Rockford, Ill.).

[5] = parameters: species or system mice; conditions: mouse, in vivo
Description: We have experimentally investigated the transplacental passage of spin trapping compounds. Methodology: C57B16 mice were injected ip with 4 mmols/kg POBN [a-(4-pyridyl-1-oxide-N-t-butylnitrone)] on day 16 of pregnancy. Animals were sacrificed at different times after injection, 2-5 fetuses collected and lipids extracted as described by Brackett et al., 1989. Electron paramagnetic spectra were obtained in a Varian EPR spectrometer equipped with an X-band microwave bridge with center field set at 3376 Gauss and modulation frequency at 100 Hz. The extracts were examined before and after in vitro addition of a hydroxyl radical generating Fenton mixture (Fe^2++H2O2).

extracellular O2− [6] = assay: Cytochrome c reduction assay of the X/XO reaction; format: biochemical; conditions: SOD 500 U/ml
Description: Extracellular superoxide anion generation: O2^− was generated enzymatically from the reaction between 2 mM xanthine (X) and 20 mU/ml xanthine oxidase (XO), as described by McCord and Fridovich (1969). Though these amounts are larger than those routinely used for in vitro generation of O2^− in cell-free experiments, we have based our decision on the presence of both XO and SOD in fetal membranes (Telfer et al., 1997) and on our assumption that the expression of these enzymes will change the efficiency of the X/XO reaction. As a result we monitored the efficiency of the X/XO reaction in our experimental setting by a cytochrome c assay, both in tissue-free conditions as well as in the presence of the tissue (Babior et al., 1973).

[7] = 10 mM NAC, 24 h incubation of human term fetal membranes
[8] = NAC 10 mM, human fetal membranes
[9] = SNAP 10 mM, LNA 1 mM, data not shown
[10] = addition of SOD, 3 hour incubation with NBT

CC(=O)N[C@@H](CS)C(=O)O [NAC, N-acetylcysteine]
MMP-2 activity, % of the levels from the CRL tissue (MMP-2; [7]): 20% | Effect on MMP-2 in the presence and absence of LPS (MMP-2; [8]): dramatically inhibited | MMP-9 activity, % of the levels from the CRL tissue (MMP-9; [7]): 20% | Effect on MMP-9 in the presence and absence of LPS (MMP-9; [8]): dramatically inhibited | Effect on the increase in MMP-9 induced by X/XO (MMP-9; human fetal membranes): prevented the increase in MMP-9 | Formazan formation in the incubated tissue (macroscopic) ([1]; NAC 10 mM, 3 hour incubation with NBT): completely abolished | Formazan deposits by light microscopy (intracellular O2− formation) ([1]; tissues exposed to NAC): no formazan deposits | Latency compared statistically with CRL and LPS groups (C57B16 inbred mice [2]; LPS plus NAC): no longer different from either CRL or LPS animals | Latency period (LPS injection until delivery) (C57B16 inbred mice [2]; LPS plus two doses of 1 mg/kg NAC per os, 1 h before and 2 h after LPS, n=12): 35.13 ± 6.41 h | Kaplan-Maier survival analysis of cumulative birth rates (C57B16 inbred mice [2]; LPS-injected mice with or without NAC): did not reveal a significant NAC effect | Time of delivery after saline injection (C57B16 inbred mice [2]; NAC alone, no LPS, n=7): 67.71 ± 5.8 h | Fetuses dead in utero (C57B16 inbred mice [3]; group that received LPS plus NAC, p=0.006 vs LPS group): 37% | Proportion of pups born alive (C57B16 inbred mice [3]; mice given NAC before and after LPS): statistically significant increase | Effect on the LPS-induced increase in placental extracellular O2− production (extracellular O2− [4]; LPS plus NAC, 3 hours): not seen | Maternal liver GSH (glutathione; LPS-treated pregnant mice, NAC p.o.): prevented the decrease | Fetal liver GSH content (glutathione; fetuses of LPS-injected mice, maternal NAC p.o.): not different from either CRL or LPS

CC(C)(C)[N+]([O-])=Cc1cc[n+]([O-])cc1 [POBN, a-(4-pyridyl-1-oxide-N-t-butylnitrone)]
Additional difference in magnitude of the EPR signal, fetus 6 h vs maternal liver 1 h or fetus 1 h [5]: 10 fold

CC(=O)N[C@H](C(=O)O)C(C)(C)SN=O [SNAP, S-nitroso-N-acetyl penicillamine]
Effect on fetal membrane MMP activity (MMP-2) (MMP-2; [9]): nor the NO donor SNAP had any significant effect | Effect on fetal membrane MMP activity (MMP-9) (MMP-9; [9]): nor the NO donor SNAP had any significant effect

lipopolysaccharide [LPS]
Fetuses dead in utero (C57B16 inbred mice [3]; LPS group without NAC): 63% | Vaginal stillbirth rate (C57B16 inbred mice [3]; LPS group without NAC): 100% | Increase in extracellular O2− production in placentas (extracellular O2− [4]; LPS-injected animals at 3 hours): 2.7 fold

superoxide dismutase [SOD]
Effect on the increase in MMP-9 induced by X/XO (MMP-9; human fetal membranes): reversed | Change in absorbance at 550 nm (cytochrome c reduction by X/XO) (extracellular O2− [6]): completely inhibited | Extracellular formazan formation induced by X/XO [1, 10]: inhibited completely | Intracellular formazan formation induced by X/XO [1, 10]: only partially
